Experimental data as given in PMC9516332 (Frontiers in Oncology, 2022).
pIC50: −log10 of the molar value. Like-named read-outs stand apart in the source and are kept apart here.

Assays:
[1] = target: panel of 255 wild-type kinases (Homo sapiens, UniProt O00311); test: Kinase panel profiling at 1 µmol/L (MSA or IMAP), percentage inhibition; type: biochemical; conditions: CDC7/ASK kinase assay; 1 µmol/L single concentration; read-out: %-inhibition CDC7/ASK
[2] = target: panel of 255 wild-type kinases (Homo sapiens, UniProt P42684); test: as above; type: biochemical; conditions: ARG kinase assay; 1 µmol/L single concentration; read-out: %-inhibition ARG
AP-1060 (ETV6-NTRK3) = test: Cell viability assay; conditions: read-out: IC50 in cell proliferation assay
134 cancer cell lines = test: Cell viability assay (ATPlite, 72 hours), IC50 on cancer cell line panel

Question: For Cn1cnc2c(F)c(Nc3ccc(Br)cc3F)c(C(=O)NOCCO)cc21 [binimetinib], which inhibition at 1 µM [1] is on record?
Answer: -0.214%

Question: And the inhibition at 1 µM [2]?
Answer: 1.39%

Question: And the pIC50 (AP-1060 (ETV6-NTRK3))?
Answer: 4.73

Question: What about the pIC50 (134 cancer cell lines; HEC-6, read-out: IC50 in cell proliferation assay, HEC-6 cell line (EGFR p.A289V)) of the same compound?
Answer: < 4.50

Question: What about the pIC50 (134 cancer cell lines; Homo sapiens, 769-P, read-out: IC50 in cell proliferation assay, cell line 769-P) of the same compound?
Answer: 6.64

Question: And the pIC50 (134 cancer cell lines; Homo sapiens, 786-0, read-out: IC50 in cell proliferation assay, cell line 786-O)?
Answer: < 4.50

Question: And the pIC50 (134 cancer cell lines; Homo sapiens, A 172, read-out: IC50 in cell proliferation assay, cell line A-172)?
Answer: 4.70

Question: And the pIC50 (134 cancer cell lines; Homo sapiens, A204, read-out: IC50 in cell proliferation assay, cell line A-204)?
Answer: < 4.50

Question: And the pIC50 (134 cancer cell lines; Homo sapiens, A498, read-out: IC50 in cell proliferation assay, cell line A-498)?
Answer: 7.28

Question: And the pIC50 (134 cancer cell lines; Homo sapiens, A549, read-out: IC50 in cell proliferation assay, cell line A-549)?
Answer: 7.04

Question: And the pIC50 (134 cancer cell lines; Homo sapiens, A704, read-out: IC50 in cell proliferation assay, cell line A-704)?
Answer: < 4.50

Question: And the pIC50 (134 cancer cell lines; Homo sapiens, A-375, read-out: IC50 in cell proliferation assay, cell line A-375 (BRAF p.V600E))?
Answer: 7.07

Question: And the pIC50 (134 cancer cell lines; Homo sapiens, A-427, read-out: IC50 in cell proliferation assay, cell line A-427)?
Answer: 6.20

Question: What about the pIC50 (134 cancer cell lines; Homo sapiens, ACHN, read-out: IC50 in cell proliferation assay, cell line ACHN) of the same compound?
Answer: 7.49

Question: And the pIC50 (134 cancer cell lines; Homo sapiens, AN3-CA, read-out: IC50 in cell proliferation assay, cell line AN3-CA (FGFR2 p.N549K))?
Answer: 4.89

Question: What about the pIC50 (134 cancer cell lines; Homo sapiens, ASPC1, read-out: IC50 in cell proliferation assay, cell line AsPC-1) of the same compound?
Answer: 6.94

Question: And the pIC50 (134 cancer cell lines; Homo sapiens, AU565, read-out: IC50 in cell proliferation assay, cell line AU565 (ERBB2 amplification))?
Answer: < 4.50

Question: What about the pIC50 (134 cancer cell lines; Homo sapiens, BT-20, read-out: IC50 in cell proliferation assay, cell line BT-20) of the same compound?
Answer: < 4.50

Question: What about the pIC50 (134 cancer cell lines; Homo sapiens, BT-474, read-out: IC50 in cell proliferation assay, cell line BT-474 (ERBB2 amplification)) of the same compound?
Answer: < 4.50

Question: And the pIC50 (134 cancer cell lines; Homo sapiens, BT-549, read-out: IC50 in cell proliferation assay, cell line BT-549)?
Answer: 5.06

Question: What about the pIC50 (134 cancer cell lines; Homo sapiens, BXPC-3, read-out: IC50 in cell proliferation assay, cell line BxPC-3) of the same compound?
Answer: 7.62

Question: What about the pIC50 (134 cancer cell lines; Homo sapiens, C-33-A, read-out: IC50 in cell proliferation assay, cell line C-33 A) of the same compound?
Answer: 7.14

Question: And the pIC50 (134 cancer cell lines; Homo sapiens, CAL-27, read-out: IC50 in cell proliferation assay, cell line CAL-27)?
Answer: 6.93

Question: And the pIC50 (134 cancer cell lines; Homo sapiens, CCF-STTG1, read-out: IC50 in cell proliferation assay, cell line CCF-STTG1)?
Answer: < 4.50

Question: What about the pIC50 (134 cancer cell lines; Homo sapiens, CCRF-CEM, read-out: IC50 in cell proliferation assay, cell line CCRF-CEM) of the same compound?
Answer: < 4.50

Question: What about the pIC50 (134 cancer cell lines; Homo sapiens, COLO 205, read-out: IC50 in cell proliferation assay, cell line COLO 205 (BRAF p.V600E)) of the same compound?
Answer: 7.51

Question: And the pIC50 (134 cancer cell lines; Homo sapiens, COLO-829, read-out: IC50 in cell proliferation assay, cell line COLO 829 (BRAF p.V600E))?
Answer: 6.90

Question: What about the pIC50 (134 cancer cell lines; Homo sapiens, DLD-1, read-out: IC50 in cell proliferation assay, cell line DLD-1) of the same compound?
Answer: 6.28

Question: And the pIC50 (134 cancer cell lines; Homo sapiens, DU-4475, read-out: IC50 in cell proliferation assay, cell line DU4475 (BRAF p.V600E))?
Answer: 7.42

Question: What about the pIC50 (134 cancer cell lines; Homo sapiens, Daoy, read-out: IC50 in cell proliferation assay, cell line Daoy) of the same compound?
Answer: 5.40

Question: And the pIC50 (134 cancer cell lines; Homo sapiens, DoTc2-4510, read-out: IC50 in cell proliferation assay, cell line DoTc2 4510)?
Answer: 6.95

Question: And the pIC50 (134 cancer cell lines; Homo sapiens, EOL1, read-out: IC50 in cell proliferation assay, cell line EoL-1 (FIP1L1-PDGFRA))?
Answer: 7.09

Question: What about the pIC50 (134 cancer cell lines; Homo sapiens, FaDu, read-out: IC50 in cell proliferation assay, cell line FaDu) of the same compound?
Answer: 7.33

Question: What about the pIC50 (134 cancer cell lines; Homo sapiens, G-361, read-out: IC50 in cell proliferation assay, cell line G-361 (BRAF p.V600E)) of the same compound?
Answer: 6.84

Question: What about the pIC50 (134 cancer cell lines; Homo sapiens, HCC827, read-out: IC50 in cell proliferation assay, cell line HCC827 (EGFR exon19del)) of the same compound?
Answer: 6.57

Question: And the pIC50 (134 cancer cell lines; Homo sapiens, HCC4006, read-out: IC50 in cell proliferation assay, cell line HCC4006 (EGFR exon19del))?
Answer: 4.57

Question: And the pIC50 (134 cancer cell lines; Homo sapiens, HCT-15, read-out: IC50 in cell proliferation assay, cell line HCT 15)?
Answer: 5.97

Question: And the pIC50 (134 cancer cell lines; Homo sapiens, HCT-116, read-out: IC50 in cell proliferation assay, cell line HCT 116)?
Answer: 6.28

Question: And the pIC50 (134 cancer cell lines; Homo sapiens, HEC-1, read-out: IC50 in cell proliferation assay, HEC-1 cell line)?
Answer: < 4.50

Question: And the pIC50 (134 cancer cell lines; Homo sapiens, HEC-1B, read-out: IC50 in cell proliferation assay, HEC-1-B cell line (EGFR p.A864V))?
Answer: 7.92

Question: What about the pIC50 (134 cancer cell lines; Homo sapiens, HL-60, read-out: IC50 in cell proliferation assay, HL-60 cell line) of the same compound?
Answer: 8.30

Question: And the pIC50 (134 cancer cell lines; Homo sapiens, HT, read-out: IC50 in cell proliferation assay, HT cell line)?
Answer: < 4.50

Question: And the pIC50 (134 cancer cell lines; Homo sapiens, HT-1080, read-out: IC50 in cell proliferation assay, HT-1080 cell line)?
Answer: 7.57

Question: What about the pIC50 (134 cancer cell lines; Homo sapiens, Hs746T, read-out: IC50 in cell proliferation assay, Hs 746.T cell line (MET exon14skip + amplification)) of the same compound?
Answer: 4.90

Question: What about the pIC50 (134 cancer cell lines; Homo sapiens, Hs-578T, read-out: IC50 in cell proliferation assay, Hs 578T cell line) of the same compound?
Answer: 6.84

Question: What about the pIC50 (134 cancer cell lines; Homo sapiens, HuTu80, read-out: IC50 in cell proliferation assay, HuTu 80 cell line) of the same compound?
Answer: 5.48

Question: What about the pIC50 (134 cancer cell lines; Homo sapiens, J82, read-out: IC50 in cell proliferation assay, J82 cell line) of the same compound?
Answer: 6.70

Question: What about the pIC50 (134 cancer cell lines; Homo sapiens, Jurkat E6.1, read-out: IC50 in cell proliferation assay, Jurkat E6.1 cell line) of the same compound?
Answer: < 4.50

Question: What about the pIC50 (134 cancer cell lines; Homo sapiens, K562, read-out: IC50 in cell proliferation assay, K-562 cell line) of the same compound?
Answer: 6.42

Question: And the pIC50 (134 cancer cell lines; Homo sapiens, KATO III, read-out: IC50 in cell proliferation assay, KATO III cell line (FGFR2 amplification))?
Answer: 5.27

Question: And the pIC50 (134 cancer cell lines; Homo sapiens, KG-1, read-out: IC50 in cell proliferation assay, KG-1 cell line (FGFR1OP2-FGFR1))?
Answer: 6.39

Question: What about the pIC50 (134 cancer cell lines; Homo sapiens, KLE, read-out: IC50 in cell proliferation assay, KLE cell line) of the same compound?
Answer: < 4.50

Question: What about the pIC50 (134 cancer cell lines; Homo sapiens, KMS-11, read-out: IC50 in cell proliferation assay, KMS-11 cell line (FGFR3 p.Y373C)) of the same compound?
Answer: < 4.50

Question: What about the pIC50 (134 cancer cell lines; Homo sapiens, KU812, read-out: IC50 in cell proliferation assay, Ku812 cell line) of the same compound?
Answer: 7.52

Question: And the pIC50 (134 cancer cell lines; Homo sapiens, Kasumi 1, read-out: IC50 in cell proliferation assay, Kasumi-1 cell line (KIT p.N822K))?
Answer: 6.72

Question: And the pIC50 (134 cancer cell lines; Homo sapiens, LC-2-ad, read-out: IC50 in cell proliferation assay, LC-2/ad cell line (CCDC6-RET))?
Answer: 7.08

Question: And the pIC50 (134 cancer cell lines; Homo sapiens, LNCaP-Clone-FGC, read-out: IC50 in cell proliferation assay, LNCaP clone FGC cell line)?
Answer: < 4.50

Question: And the pIC50 (134 cancer cell lines; Homo sapiens, LS174T, read-out: IC50 in cell proliferation assay, LS174T cell line)?
Answer: 7.15

Question: And the pIC50 (134 cancer cell lines; Homo sapiens, LS-411N, read-out: IC50 in cell proliferation assay, LS411N cell line (BRAF p.V600E))?
Answer: 7.21

Question: What about the pIC50 (134 cancer cell lines; Homo sapiens, LoVo, read-out: IC50 in cell proliferation assay, LoVo cell line) of the same compound?
Answer: 7.64

Question: What about the pIC50 (134 cancer cell lines; Homo sapiens, MCF7, read-out: IC50 in cell proliferation assay, MCF-7 cell line) of the same compound?
Answer: < 4.50

Question: What about the pIC50 (134 cancer cell lines; Homo sapiens, MDA-MB-231, read-out: IC50 in cell proliferation assay, MDA-MB-231 cell line) of the same compound?
Answer: 5.99

Question: And the pIC50 (134 cancer cell lines; Homo sapiens, MDA-MB-453, read-out: IC50 in cell proliferation assay, MDA-MB-453 cell line)?
Answer: < 4.50

Question: And the pIC50 (134 cancer cell lines; Homo sapiens, MDA-MB-468, read-out: IC50 in cell proliferation assay, MDA-MB-468 cell line)?
Answer: 7.19

Question: And the pIC50 (134 cancer cell lines; Homo sapiens, MG-63, read-out: IC50 in cell proliferation assay, MG-63 cell line)?
Answer: 5.65

Question: And the pIC50 (134 cancer cell lines; Homo sapiens, MIA PaCa-2, read-out: IC50 in cell proliferation assay, MIA PaCa-2 cell line)?
Answer: 6.85

Question: What about the pIC50 (134 cancer cell lines; Homo sapiens, MKN-45, read-out: IC50 in cell proliferation assay, MKN45 cell line (MET amplification)) of the same compound?
Answer: 5.94
